Results as given in paper doi:10.1101/487637v1, “Chemogenetic ligands for translational neurotheranostics” (biorxiv, 2018).

How the values were obtained:
hM3Dq [1] = biological target: T1, hM3Dq (Homo sapiens, UniProt P20309, Y149C/A239G); assay: [3H]clozapine competition, HEK-293 membranes; format: binding; details: 2.5 nM [3H]clozapine, 50 mM Tris-HCl pH 7.4, 10 mM MgCl2, RT, 2 h
T1 construct: gene CHRM3; human M3 muscarinic receptor DREADD; AAV plasmid Addgene #89149; transiently expressed in HEK-293 cells

hM4Di [2] = biological target: T2, hM4Di (Homo sapiens, UniProt P08173, Y113C/A203G); assay: [3H]clozapine competition, HEK-293 membranes; format: binding; details: 2.5 nM [3H]clozapine, 50 mM Tris-HCl pH 7.4, 10 mM MgCl2, RT, 2 h
T2 construct: gene CHRM4; human M4 muscarinic receptor DREADD; AAV plasmid Addgene #89150; transiently expressed in HEK-293 cells; docking model prints Y113G/A203G, the standard DREADD is Y113C/A203G
T2 sequence (P08173 1-479 Y113C/A203G): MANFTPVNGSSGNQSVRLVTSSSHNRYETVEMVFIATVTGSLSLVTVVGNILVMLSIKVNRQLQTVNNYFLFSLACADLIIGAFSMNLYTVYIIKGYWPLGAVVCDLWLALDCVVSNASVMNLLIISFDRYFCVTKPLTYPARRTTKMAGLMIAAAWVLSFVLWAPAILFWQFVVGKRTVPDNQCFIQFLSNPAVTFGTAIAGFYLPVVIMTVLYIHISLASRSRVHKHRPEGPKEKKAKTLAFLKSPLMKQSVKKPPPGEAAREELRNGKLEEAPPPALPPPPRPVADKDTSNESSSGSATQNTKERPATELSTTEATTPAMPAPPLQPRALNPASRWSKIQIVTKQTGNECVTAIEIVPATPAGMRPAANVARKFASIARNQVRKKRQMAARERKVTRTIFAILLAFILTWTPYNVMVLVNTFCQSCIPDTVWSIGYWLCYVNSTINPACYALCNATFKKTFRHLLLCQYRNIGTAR

hM4Di [3] = biological target: T2, hM4Di; assay: BRET Galpha-o1 activation, HEK-293; format: cell-based; details: agonist; PBS; Galpha-Rluc8, beta1, gamma2-mVenus
hM3Dq [4] = biological target: T3, hM3Dq (Homo sapiens, UniProt P20309, A239G/Y149C); assay: [3H]clozapine competition, HEK-293 membranes; format: binding
T3 construct: gene CHRM3; human M3 muscarinic receptor DREADD; AAV plasmid Addgene #89149; transiently expressed in HEK-293 cells

hM4Di [5] = biological target: T4, hM4Di (Homo sapiens, UniProt P08173, A203G/Y113C); assay: [3H]clozapine competition, HEK-293 membranes; format: binding
T4 construct: gene CHRM4; human M4 muscarinic receptor DREADD; AAV plasmid Addgene #89150; transiently expressed in HEK-293 cells; docking model prints Y113G/A203G, the standard DREADD is Y113C/A203G
T4 sequence (P08173 1-479 Y113C/A203G): T2 sequence (P08173 1-479 Y113C/A203G)

T3 sequence (P20309 whole entry Y149C/A239G): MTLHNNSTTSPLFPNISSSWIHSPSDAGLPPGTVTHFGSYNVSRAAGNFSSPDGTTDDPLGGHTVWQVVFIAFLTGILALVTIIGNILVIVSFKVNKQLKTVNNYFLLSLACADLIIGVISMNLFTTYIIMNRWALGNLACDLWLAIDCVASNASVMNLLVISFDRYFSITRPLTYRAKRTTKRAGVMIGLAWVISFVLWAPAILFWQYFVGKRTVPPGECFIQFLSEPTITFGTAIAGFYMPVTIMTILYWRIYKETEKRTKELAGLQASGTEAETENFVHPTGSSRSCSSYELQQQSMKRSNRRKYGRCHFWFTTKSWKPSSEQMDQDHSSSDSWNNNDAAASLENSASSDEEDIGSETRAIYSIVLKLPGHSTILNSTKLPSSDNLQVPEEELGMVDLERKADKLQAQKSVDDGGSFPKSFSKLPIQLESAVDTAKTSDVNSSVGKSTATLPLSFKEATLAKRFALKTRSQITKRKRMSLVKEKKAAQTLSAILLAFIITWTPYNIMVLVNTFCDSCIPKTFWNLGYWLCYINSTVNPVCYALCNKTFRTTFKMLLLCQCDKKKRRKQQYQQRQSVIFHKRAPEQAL
T1 sequence (P20309 whole entry Y149C/A239G): as above

`CCN1CCN(C2=Nc3cc(Cl)ccc3Nc3ccccc32)CC1` [C13, Compound 13] gave a Ki (hM3Dq [1]) of 0.0043 µM and a Ki (hM4Di [2]) of 0.0043 µM.
With `CN1CCN(C2=Nc3cc(Cl)ccc3Nc3ccccc32)CC1` [CLZ, clozapine] the EC50 (hM4Di [3]) was “C21 was less potent than clozapine at Gi/o activation in cells or tissue expressing hM4Di”.
`c1ccc2c(c1)N=C(N1CCNCC1)c1ccccc1N2` [C21, Compound 21] was tested, and the Ki (hM3Dq [4]) was 0.23 µM, the Ki (hM4Di [5]) was 0.091 µM and the EC50 (hM4Di [3]) was “C21 was less potent than clozapine at Gi/o activation in cells or tissue expressing hM4Di”.
